{"source": "patent US20240417370A1", "about": "“LIPIDS FOR USE IN LIPID NANOPARTICLE FORMULATIONS” (Acuitas Therapeutics, Inc., priority 2023, published 2024)", "test_system": "human IgG in mouse serum", "experiment": "Immunoglobulin G (IgG) mRNA in vivo evaluation using lipid nanoparticle compositions", "set-up": "species or system mice", "conditions": "LNP-formulated lipid, tail vein injection, μg IgG/mL serum 24 hours after administration; for Serum IgG @ 0.3 mg/kg: 0.3 mg mRNA/kg; for Serum IgG @ 1.0 mg/kg: 1.0 mg mRNA/kg", "procedure": "A lipid of structure (I), DSPC, cholesterol and PEG-lipid are solubilized in ethanol at a molar ratio of 50:10:38.5:1.5 or 47.5:10:40.7:1.8. Lipid nanoparticles (LNP) are prepared at a total lipid to mRNA weight ratio of approximately 10:1 to 40:1. Briefly, the mRNA is diluted to 0.2 mg/mL in 10 to 50 mM citrate buffer, pH 4 to 6 or 10 to 25 mM acetate buffer, pH 4 to 6. Syringe pumps are used to mix the ethanolic lipid solution with the mRNA aqueous solution at a ratio of about 1:5 to 1:3 (vol/vol) with total flow rates above 15 mL/min. The ethanol is then removed, and the external buffer replaced with PBS by dialysis. Finally, the lipid nanoparticles are filtered through a 0.2 µm pore sterile filter.\nStudies are performed in 6-8-week-old CD-1/ICR mice (Envigo, Charles River, or Inotiv) according to guidelines established by an institutional animal care committee (ACC) and the Canadian Council on Animal Care (CCAC). Varying doses of mRNA-lipid nanoparticle are systemically administered by tail vein injection and animals euthanized at a specific time point (e.g., 24 hours) post-administration. The whole blood is collected, and the serum subsequentially separated by centrifuging the tubes of the whole blood at 2000×g for 10 minutes at 4° C. and stored at −80° C. until use for analysis.\nFor immunoglobulin G (IgG) ELISA (Life Diagnostics Human IgG ELISA kit), the serum samples are diluted at 100 to 20,000 folds with 1× diluent solution. 100 μL of diluted serum is dispensed into anti-human IgG coated 96-well plate in duplicate alongside human IgG standards and incubated in a plate shaker at 150 rpm at 25° C. for 45 minutes. The wells are washed 5 times with 1× wash solution using a plate washer (400 μL/well). 100 μL of HRP conjugate is added into each well and incubated in a plate shaker at the same condition above. The wells are washed 5 times again with 1× wash solution using a plate washer (400 μL/well). 100 μL of TMB reagent is added into each well and incubated in a plate shaker at the same condition above. The reaction is stopped by adding 100 μL of Stop solution to each well. The absorbance is read at 450 nm (A450) with a microplate reader. The amount of human IgG in mouse serum is determined by plotting A450 values for the assay standard against human IgG concentration.\nRepresentative compounds of the disclosure shown in Table 2 were formulated using the following molar ratio: 50% cationic lipid/10% distearoylphosphatidylcholine (DSPC)/38.5% Cholesterol/1.5% PEG lipid 2-[2-(ω-methoxy(polyethyleneglycol2000)ethoxy]-N,N-ditetradecylacetamide) or 47.5% cationic lipid/10% DSPC/40.7% Cholesterol/1.8% PEG lipid. Relative activity was determined by measuring luciferase expression in the liver 4 hours following administration via tail vein injection as described in Example 1 or by measuring the amount of human IgG in mouse serum as described in example 2. The activity was compared at a dose of 1.0 or 0.5 or 0.3 mg mRNA/kg and expressed as ng luciferase/g liver measured 4 hours after administration, as described in Example 1 or as μg IgG/mL serum measured 24 hours after administration, as described in Example 2. Compound numbers in Table 2 refer to the compound numbers of Table 1."}
{"smiles": "CCCCCCCCCCN(CCCCCCCCCC)C(=O)CCCCCCCN(CCCCCCCC(=O)N(CCCCCCCCCC)CCCCCCCCCC)C[C@H]1C[C@@H]1CO", "note": "(racemic) [(rac)-(1RS, 2RS) I-45, 8,8′-((((1s,2s)-2-(hydroxymethyl)cyclopropyl)methyl)azanediyl)bis(N,N-didecyloctanamide)]", "values": [{"measurement": "Serum IgG @ 0.3 mg/kg", "result": "10.95 ± 4.31", "unit": "µg/mL"}]}
{"smiles": "CCCCCCCCCCN(CCCCCCCCCC)C(=O)CCCCCCCN(CCCCCCCC(=O)N(CCCCCCCCCC)CCCCCCCCCC)C1CCC[C@H]1O", "note": "(mixture of isomers) [(rac)-(1RS, 2RS) I-48, 8,8′-(((1s,2s)-2-hydroxycyclopentyl)azanediyl)bis(N,N-didecyloctanamide)]", "values": [{"measurement": "Serum IgG @ 0.3 mg/kg", "result": "32.85 ± 6.90", "unit": "µg/mL"}, {"measurement": "Serum IgG @ 1.0 mg/kg", "result": "216.8 ± 46.48", "unit": "µg/mL"}]}
{"smiles": "CCCCCCCCCCN(CCCCCCCCCC)C(=O)CCCCCCCN(CCCCCCCC(=O)N(CCCCCCCCCC)CCCCCCCCCC)C[C@H]1C[C@H]1CO", "note": "(racemic) [(rac)-(1RS, 2SR) I-45, 8,8′-((((1s,2r)-2-(hydroxymethyl)cyclopropyl)methyl)azanediyl)bis(N,N-didecyloctanamide)]", "values": [{"measurement": "Serum IgG @ 0.3 mg/kg", "result": "15.84 ± 3.20", "unit": "µg/mL"}]}
{"smiles": "CCCCCCCCCCN(CCCCCCCCCC)C(=O)CCCCCCCN(CCCCCCCC(=O)N(CCCCCCCCCC)CCCCCCCCCC)C1CCCC1O", "note": "(racemic) [(rac)-(1RS, 2SR) I-48, 8,8′-(((1s,2r)-2-hydroxycyclopentyl)azanediyl)bis(N,N-didecyloctanamide)]", "values": [{"measurement": "Serum IgG @ 0.3 mg/kg", "result": "43.32 ± 11.04", "unit": "µg/mL"}, {"measurement": "Serum IgG @ 1.0 mg/kg", "result": "161.75 ± 26.50", "unit": "µg/mL"}]}
{"smiles": "CCCCCCCCCCN(CCCCCCCCCC)C(=O)CCCCCCCN(CCCCCCCC(=O)N(CCCCCCCCCC)CCCCCCCCCC)[C@@H]1CC[C@@H](O)C1", "note": "(racemic) [(rac)-(1RS, 3RS) I-14, 8,8′-(((1r,3r)-3-hydroxycyclopentyl)azanediyl)bis(N,N-didecyloctanamide); 8,8′-(((1s,3s)-3-hydroxycyclopentyl)azanediyl)bis(N,N-didecyloctanamide)]", "values": [{"measurement": "Serum IgG @ 0.3 mg/kg", "result": "11.48 ± 1.87", "unit": "µg/mL"}, {"measurement": "Serum IgG @ 1.0 mg/kg", "result": "45.96 ± 11.03", "unit": "µg/mL"}]}
{"smiles": "CCCCCCCCCCN(CCCCCCCCCC)C(=O)CCCCCCCN(CCCCCCCC(=O)N(CCCCCCCCCC)CCCCCCCCCC)[C@@H]1CC[C@H](O)C1", "note": "(racemic) [(rac)-(1RS, 3SR) I-14, 8,8′-(((1r,3s)-3-hydroxycyclopentyl)azanediyl)bis(N,N-didecyloctanamide); 8,8′-(((1s,3r)-3-hydroxycyclopentyl)azanediyl)bis(N,N-didecyloctanamide)]", "values": [{"measurement": "Serum IgG @ 0.3 mg/kg", "result": "15.74 ± 5.71", "unit": "µg/mL"}, {"measurement": "Serum IgG @ 1.0 mg/kg", "result": "66.16 ± 16.66", "unit": "µg/mL"}]}
{"smiles": "CCCCCCCCCCN(CCCCCCCCCC)C(=O)CCCCCCCN(CCCCCCCC(=O)N(CCCCCCCCCC)CCCCCCCCCC)[C@@H]1CCC[C@H]1O", "note": "[(1R, 2R) I-48, 8,8′-(((1r,2r)-2-hydroxycyclopentyl)azanediyl)bis(N,N-didecyloctanamide)]", "values": [{"measurement": "Serum IgG @ 0.3 mg/kg", "result": "25.27 ± 7.50", "unit": "µg/mL"}, {"measurement": "Serum IgG @ 1.0 mg/kg", "result": "92.5 ± 20.18", "unit": "µg/mL"}]}
{"smiles": "CCCCCCCCCCN(CCCCCCCCCC)C(=O)CCCCCCCN(CCCCCCCC(=O)N(CCCCCCCCCC)CCCCCCCCCC)[C@@H]1CCC[C@@H]1O", "note": "[(1R, 2S) I-48, 8,8′-(((1r,2s)-2-hydroxycyclopentyl)azanediyl)bis(N,N-didecyloctanamide)]", "values": [{"measurement": "Serum IgG @ 0.3 mg/kg", "result": "28.32 ± 8.81", "unit": "µg/mL"}]}
{"smiles": "CCCCCCCCCCN(CCCCCCCCCC)C(=O)CCCCCCCN(CCCCCCCC(=O)N(CCCCCCCCCC)CCCCCCCCCC)[C@H]1C[C@H](O)C1", "note": "[(1R, 3R) I-5, 8,8′-(((1R,3R)-3-hydroxycyclobutyl)azanediyl)bis(N,N-didecyloctanamide)]", "values": [{"measurement": "Serum IgG @ 0.3 mg/kg", "result": "44.52 ± 9.89", "unit": "µg/mL"}, {"measurement": "Serum IgG @ 1.0 mg/kg", "result": "215.61 ± 28.80", "unit": "µg/mL"}]}
{"smiles": "CCCCCCCCCCN(CCCCCCCCCC)C(=O)CCCCCCCN(CCCCCCCC(=O)N(CCCCCCCCCC)CCCCCCCCCC)[C@@H]1CCC[C@@H](O)C1", "note": "[(1R, 3R) I-17, 8,8′-(((1R,3R)-3-hydroxycyclohexyl)azanediyl)bis(N,N-didecyloctanamide)]", "values": [{"measurement": "Serum IgG @ 0.3 mg/kg", "result": "27.97 ± 3.37", "unit": "µg/mL"}, {"measurement": "Serum IgG @ 1.0 mg/kg", "result": "178.14 ± 33.27", "unit": "µg/mL"}]}
{"smiles": "CCCCCCCCCCN(CCCCCCCCN(CCCCCCCCN(CCCCCCCCCC)C(=O)CCCCCCCCC)C[C@H]1C[C@H](O)C1)C(=O)CCCCCCCCC", "note": "[(1R, 3R) I-22, N,N′-(((((1R,3R)-3-hydroxycyclobutyl)methyl)azanediyl)bis(octane-8,1-diyl))bis(N-decyldecanamide)]", "values": [{"measurement": "Serum IgG @ 0.3 mg/kg", "result": "19.88 ± 2.53", "unit": "µg/mL"}]}
{"smiles": "CCCCCCCCCCN(CCCCCCCCCC)C(=O)CCCCCCCN(CCCCCCCC(=O)N(CCCCCCCCCC)CCCCCCCCCC)[C@H]1C[C@H](CO)C1", "note": "[(1R, 3R) I-24, 8,8′-(((1R,3R)-3-(hydroxymethyl)cyclobutyl)azanediyl)bis(N,N-didecyloctanamide)]", "values": [{"measurement": "Serum IgG @ 0.3 mg/kg", "result": "6.93 ± 2.48", "unit": "µg/mL"}, {"measurement": "Serum IgG @ 1.0 mg/kg", "result": "19.77 ± 5.43", "unit": "µg/mL"}]}
{"smiles": "CCCCCCCCCCN(CCCCCCCCCC)C(=O)CCCCCCCN(CCCCCCCC(=O)N(CCCCCCCCCC)CCCCCCCCCC)[C@H]1CC[C@H](O)CC1", "note": "[(1R, 4R) I-9, 8,8′-(((1R,4R)-4-hydroxycyclohexyl)azanediyl)bis(N,N-didecyloctanamide)]", "values": [{"measurement": "Serum IgG @ 0.3 mg/kg", "result": "45.52 ± 6.25", "unit": "µg/mL"}, {"measurement": "Serum IgG @ 1.0 mg/kg", "result": "204.57 ± 48.15", "unit": "µg/mL"}]}
{"smiles": "CCCCCCCCCCN(CCCCCCCCCC)C(=O)CCCCCCCN(CCCCCCCC(=O)N(CCCCCCCCCC)CCCCCCCCCC)[C@H]1CC[C@H](CO)CC1", "note": "[(1R, 4R) I-23, 8,8′-(((1R,4R)-4-(hydroxymethyl)cyclohexyl)azanediyl)bis(N,N-didecyloctanamide)]", "values": [{"measurement": "Serum IgG @ 0.3 mg/kg", "result": "5.15 ± 1.83", "unit": "µg/mL"}, {"measurement": "Serum IgG @ 1.0 mg/kg", "result": "37.79 ± 6.41", "unit": "µg/mL"}]}
{"smiles": "CCCCCCCCCCN(CCCCCCCCCC)C(=O)CCCCCCCN(CCCCCCCC(=O)N(CCCCCCCCCC)CCCCCCCCCC)[C@H]1CC[C@](C)(O)CC1", "note": "[(1R, 4R) I-25, 8,8′-(((1R,4R)-4-hydroxy-4-methylcyclohexyl)azanediyl)bis(N,N-didecyloctanamide)]", "values": [{"measurement": "Serum IgG @ 0.3 mg/kg", "result": "14.03 ± 2.71", "unit": "µg/mL"}, {"measurement": "Serum IgG @ 1.0 mg/kg", "result": "105.77 ± 19.44", "unit": "µg/mL"}]}
{"smiles": "CCCCCCCCCCN(CCCCCCCCN(CCCCCCCC(=O)N(CCCCCCCCCC)CCCCCCCCCC)[C@H]1CC[C@H](O)CC1)C(=O)CCCCCCCCC", "note": "[(1R, 4R) I-47, N-decyl-N-(8-((8-(didecylamino)-8-oxooctyl)((1r,4r)-4-hydroxycyclohexyl)amino)octyl)decanamide]", "values": [{"measurement": "Serum IgG @ 0.3 mg/kg", "result": "16.24 ± 2.93", "unit": "µg/mL"}]}
{"smiles": "CCCCCCCCCCN(CCCCCCCCCC)C(=O)C(F)CCCCCCN(CCCCCCC(F)C(=O)N(CCCCCCCCCC)CCCCCCCCCC)[C@H]1CC[C@H](O)CC1", "note": "(stereo partly drawn) [(1R, 4R) I-49, 8,8′-(((1r,4r)-4-hydroxycyclohexyl)azanediyl)bis(N,N-didecyl-2-fluorooctanamide)]", "values": [{"measurement": "Serum IgG @ 0.3 mg/kg", "result": "28.94 ± 13.21", "unit": "µg/mL"}, {"measurement": "Serum IgG @ 1.0 mg/kg", "result": "161.09 ± 11.20", "unit": "µg/mL"}]}
{"smiles": "CCCCCCCCCCN(CCCCCCCCCC)C(=O)CCCCCCCN(CCCCCCCC(=O)N(CCCCCCCCCC)CCCCCCCCCC)[C@H]1CCC[C@H]1O", "note": "[(1S, 2R) I-15, 8,8′-(((1S,2R)-2-hydroxycyclopentyl)azanediyl)bis(N,N-didecyloctanamide)]", "values": [{"measurement": "Serum IgG @ 0.3 mg/kg", "result": "33.97 ± 18.40", "unit": "µg/mL"}, {"measurement": "Serum IgG @ 1.0 mg/kg", "result": "225.79 ± 54.78", "unit": "µg/mL"}]}
{"smiles": "CCCCCCCCCCN(CCCCCCCCCC)C(=O)CCCCCCCN(CCCCCCCC(=O)N(CCCCCCCCCC)CCCCCCCCCC)[C@H]1CCCC[C@H]1O", "note": "[(1S, 2R) I-16, 8,8′-(((1S,2R)-2-hydroxycyclohexyl)azanediyl)bis(N,N-didecyloctanamide)]", "values": [{"measurement": "Serum IgG @ 0.3 mg/kg", "result": "19.42 ± 7.21", "unit": "µg/mL"}, {"measurement": "Serum IgG @ 1.0 mg/kg", "result": "88.40 ± 26.36", "unit": "µg/mL"}]}
